How the values were obtained:
Experiment in all cases: radiometric filter-binding kinase assay, Kinase HotSpot
Conditions in all cases: compound 0.5 µM; ATP 10 µM
PBK (human) = PBK (human) (UniProt Q96KB5)
ULK1 (human) = ULK1 (human) (UniProt O75385)
TAOK1 (human) = TAOK1 (human) (UniProt Q7L7X3)
PRKD3 (human) = PRKD3 (human) (UniProt O94806)
CHEK1 (human) = CHEK1 (human) (UniProt O14757)
CDK5 CDK5R1 p25 (human) = CDK5 CDK5R1 p25 (human) (UniProt Q00535+Q15078)
EPHA3 (human) = EPHA3 (human) (UniProt P29320)
CSNK1E (human) = CSNK1E (human) (UniProt P49674)
NEK7 (human) = NEK7 (human) (UniProt Q8TDX7)
RIPK2 (human) = RIPK2 (human) (UniProt O43353)
Chain of RIPK2 (human) (O43353 whole entry, looked up): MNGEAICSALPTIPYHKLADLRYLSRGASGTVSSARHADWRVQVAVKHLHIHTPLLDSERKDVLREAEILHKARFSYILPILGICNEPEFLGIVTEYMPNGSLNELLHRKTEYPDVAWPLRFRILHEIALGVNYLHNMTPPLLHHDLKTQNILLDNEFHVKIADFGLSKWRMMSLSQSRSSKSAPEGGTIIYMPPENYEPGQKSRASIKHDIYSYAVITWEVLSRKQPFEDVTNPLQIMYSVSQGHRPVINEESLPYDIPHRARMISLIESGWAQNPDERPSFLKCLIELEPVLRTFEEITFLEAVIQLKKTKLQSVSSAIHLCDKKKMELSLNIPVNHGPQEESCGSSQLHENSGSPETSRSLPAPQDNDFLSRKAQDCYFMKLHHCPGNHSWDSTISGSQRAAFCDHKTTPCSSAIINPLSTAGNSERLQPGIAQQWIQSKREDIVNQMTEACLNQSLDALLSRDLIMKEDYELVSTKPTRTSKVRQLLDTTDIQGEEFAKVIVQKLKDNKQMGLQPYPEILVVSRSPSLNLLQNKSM

CDK4 CCND3 (human) = CDK4 CCND3 (human) (UniProt P30281+P11802)
CHUK (human) = CHUK (human) (UniProt O15111)
PNCK (human) = PNCK (human) (UniProt Q6P2M8)
FGFR4 (human) = FGFR4 (human) (UniProt P22455)
RPS6KA2 KD1 KD2 (human) = RPS6KA2 KD1 KD2 (human) (UniProt Q15349)
Chain of RPS6KA2 KD1 KD2 (human) (Q15349 whole entry, looked up): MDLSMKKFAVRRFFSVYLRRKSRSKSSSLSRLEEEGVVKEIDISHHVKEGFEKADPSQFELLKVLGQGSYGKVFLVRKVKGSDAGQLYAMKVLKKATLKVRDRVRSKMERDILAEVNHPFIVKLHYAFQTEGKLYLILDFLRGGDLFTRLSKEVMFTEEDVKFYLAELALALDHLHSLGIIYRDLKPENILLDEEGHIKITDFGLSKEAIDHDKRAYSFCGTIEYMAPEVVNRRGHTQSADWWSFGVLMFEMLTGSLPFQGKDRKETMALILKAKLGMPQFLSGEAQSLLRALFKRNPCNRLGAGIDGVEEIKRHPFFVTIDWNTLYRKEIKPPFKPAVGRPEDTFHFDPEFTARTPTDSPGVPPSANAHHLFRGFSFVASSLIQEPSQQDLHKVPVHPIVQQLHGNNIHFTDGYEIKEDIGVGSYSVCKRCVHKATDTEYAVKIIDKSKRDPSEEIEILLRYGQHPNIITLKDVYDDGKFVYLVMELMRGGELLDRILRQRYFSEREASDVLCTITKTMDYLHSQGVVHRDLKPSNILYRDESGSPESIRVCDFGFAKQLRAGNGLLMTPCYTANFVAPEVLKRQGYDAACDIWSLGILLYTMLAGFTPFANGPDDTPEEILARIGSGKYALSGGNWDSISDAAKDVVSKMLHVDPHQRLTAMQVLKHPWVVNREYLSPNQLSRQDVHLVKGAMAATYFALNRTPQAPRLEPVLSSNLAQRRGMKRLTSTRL

MAP3K8 (human) = MAP3K8 (human) (UniProt P41279)
KIT (human) = KIT (human) (UniProt P10721)
CHEK2 (human) = CHEK2 (human) (UniProt O96017)
PIM2 (human) = PIM2 (human) (UniProt Q9P1W9)
Chain of PIM2 (human) (Q9P1W9 whole entry, looked up): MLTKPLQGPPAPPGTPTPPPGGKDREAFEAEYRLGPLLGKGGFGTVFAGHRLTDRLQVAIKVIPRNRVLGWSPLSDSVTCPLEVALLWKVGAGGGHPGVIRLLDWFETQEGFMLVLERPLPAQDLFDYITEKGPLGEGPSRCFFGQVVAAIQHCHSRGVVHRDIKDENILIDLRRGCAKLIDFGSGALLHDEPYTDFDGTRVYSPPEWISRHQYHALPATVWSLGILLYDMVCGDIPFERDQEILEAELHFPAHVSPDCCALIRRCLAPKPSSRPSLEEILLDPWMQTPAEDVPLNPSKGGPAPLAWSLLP

RPS6KA3 KD1 KD2 (human) = RPS6KA3 KD1 KD2 (human) (UniProt P51812)
TSSK2 (human) = TSSK2 (human) (UniProt Q96PF2)
TYRO3 (human) = TYRO3 (human) (UniProt Q06418)
TTK (human) = TTK (human) (UniProt P33981)
CAMK2D (human) = CAMK2D (human) (UniProt Q13557)
CDK9 CCNK (human) = CDK9 CCNK (human) (UniProt O75909+P50750)
MARK4 (human) = MARK4 (human) (UniProt Q96L34)
PRKCZ (human) = PRKCZ (human) (UniProt Q05513)
Chain of PRKCZ (human) (Q05513 whole entry, looked up): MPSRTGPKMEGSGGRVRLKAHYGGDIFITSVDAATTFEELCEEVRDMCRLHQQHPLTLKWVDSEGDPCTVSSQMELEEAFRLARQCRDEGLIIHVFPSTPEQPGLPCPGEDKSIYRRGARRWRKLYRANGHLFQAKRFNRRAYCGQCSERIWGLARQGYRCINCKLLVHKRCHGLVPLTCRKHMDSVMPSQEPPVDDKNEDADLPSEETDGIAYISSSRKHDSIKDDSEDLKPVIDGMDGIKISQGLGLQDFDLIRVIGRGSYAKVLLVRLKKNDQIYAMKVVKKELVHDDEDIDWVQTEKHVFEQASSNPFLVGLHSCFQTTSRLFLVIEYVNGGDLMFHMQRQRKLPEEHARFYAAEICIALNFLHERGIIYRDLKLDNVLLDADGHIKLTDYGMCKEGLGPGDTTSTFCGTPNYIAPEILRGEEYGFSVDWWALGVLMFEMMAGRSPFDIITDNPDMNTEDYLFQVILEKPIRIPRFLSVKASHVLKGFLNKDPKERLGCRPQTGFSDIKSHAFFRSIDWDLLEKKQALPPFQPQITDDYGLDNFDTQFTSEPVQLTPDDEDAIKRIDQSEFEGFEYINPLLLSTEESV

TXK (human) = TXK (human) (UniProt P42681)
Chain of TXK (human) (P42681 whole entry, looked up): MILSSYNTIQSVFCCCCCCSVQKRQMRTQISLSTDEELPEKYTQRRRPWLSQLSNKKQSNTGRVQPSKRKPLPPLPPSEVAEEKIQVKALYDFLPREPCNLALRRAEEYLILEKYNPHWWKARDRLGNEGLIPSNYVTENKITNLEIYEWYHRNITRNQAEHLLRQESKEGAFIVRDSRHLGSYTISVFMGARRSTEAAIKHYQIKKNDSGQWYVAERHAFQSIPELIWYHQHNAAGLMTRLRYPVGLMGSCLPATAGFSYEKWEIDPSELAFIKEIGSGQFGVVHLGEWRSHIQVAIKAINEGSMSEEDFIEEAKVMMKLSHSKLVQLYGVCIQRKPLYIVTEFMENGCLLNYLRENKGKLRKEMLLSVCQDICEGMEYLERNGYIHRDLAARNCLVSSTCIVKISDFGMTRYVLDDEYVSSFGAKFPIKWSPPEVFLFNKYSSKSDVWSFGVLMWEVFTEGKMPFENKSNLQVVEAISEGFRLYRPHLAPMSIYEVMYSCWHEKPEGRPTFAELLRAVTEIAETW

BLK (human) = BLK (human) (UniProt P51451)
MELK (human) = MELK (human) (UniProt Q14680)
MAPK8 (human) = MAPK8 (human) (UniProt P45983)
TEC (human) = TEC (human) (UniProt P42680)
MAP4K2 (human) = MAP4K2 (human) (UniProt Q12851)
NEK3 (human) = NEK3 (human) (UniProt P51956)
FER (human) = FER (human) (UniProt P16591)
MAPK1 (human) = MAPK1 (human) (UniProt P28482)
HIPK3 (human) = HIPK3 (human) (UniProt Q9H422)
Chain of HIPK3 (human) (Q9H422 whole entry, looked up): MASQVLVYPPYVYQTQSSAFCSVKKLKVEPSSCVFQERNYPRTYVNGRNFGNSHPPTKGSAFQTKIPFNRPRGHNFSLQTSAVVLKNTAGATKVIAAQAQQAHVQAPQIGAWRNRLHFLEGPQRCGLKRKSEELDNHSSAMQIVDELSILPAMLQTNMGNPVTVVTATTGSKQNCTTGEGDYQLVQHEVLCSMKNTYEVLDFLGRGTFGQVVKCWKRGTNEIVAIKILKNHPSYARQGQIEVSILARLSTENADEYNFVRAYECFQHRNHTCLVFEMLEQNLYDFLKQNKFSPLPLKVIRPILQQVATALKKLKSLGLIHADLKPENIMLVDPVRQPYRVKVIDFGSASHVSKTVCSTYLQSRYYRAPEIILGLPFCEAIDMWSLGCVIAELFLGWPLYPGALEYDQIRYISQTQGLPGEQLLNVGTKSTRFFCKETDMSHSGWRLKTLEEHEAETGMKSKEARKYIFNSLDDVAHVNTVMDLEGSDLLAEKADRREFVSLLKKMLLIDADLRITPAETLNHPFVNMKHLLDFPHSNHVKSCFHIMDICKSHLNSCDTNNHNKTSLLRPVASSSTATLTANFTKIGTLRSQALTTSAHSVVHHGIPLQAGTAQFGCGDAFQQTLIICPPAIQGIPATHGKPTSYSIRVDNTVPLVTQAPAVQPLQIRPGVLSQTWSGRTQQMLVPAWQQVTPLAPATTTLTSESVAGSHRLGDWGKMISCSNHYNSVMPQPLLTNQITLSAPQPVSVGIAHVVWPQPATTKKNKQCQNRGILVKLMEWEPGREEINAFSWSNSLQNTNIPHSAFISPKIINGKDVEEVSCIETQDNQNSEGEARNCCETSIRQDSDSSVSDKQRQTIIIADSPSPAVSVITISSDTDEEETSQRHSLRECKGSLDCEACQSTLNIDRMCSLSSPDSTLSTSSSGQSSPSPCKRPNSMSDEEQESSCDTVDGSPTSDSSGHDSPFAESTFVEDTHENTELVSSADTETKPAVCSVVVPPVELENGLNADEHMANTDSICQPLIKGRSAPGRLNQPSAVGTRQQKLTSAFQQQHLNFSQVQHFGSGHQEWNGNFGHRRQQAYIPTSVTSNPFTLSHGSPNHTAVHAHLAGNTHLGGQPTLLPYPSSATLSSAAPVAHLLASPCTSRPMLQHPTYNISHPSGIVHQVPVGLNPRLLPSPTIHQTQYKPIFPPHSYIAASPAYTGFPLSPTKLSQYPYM

MATK (human) = MATK (human) (UniProt P42679)
CDK2 CCNE1 (human) = CDK2 CCNE1 (human) (UniProt P24941+P24864)
FRK (human) = FRK (human) (UniProt P42685)
CDK2 CCNA2 (human) = CDK2 CCNA2 (human) (UniProt P24941+P20248)

Chain of TAOK1 (human) (Q7L7X3 whole entry, looked up): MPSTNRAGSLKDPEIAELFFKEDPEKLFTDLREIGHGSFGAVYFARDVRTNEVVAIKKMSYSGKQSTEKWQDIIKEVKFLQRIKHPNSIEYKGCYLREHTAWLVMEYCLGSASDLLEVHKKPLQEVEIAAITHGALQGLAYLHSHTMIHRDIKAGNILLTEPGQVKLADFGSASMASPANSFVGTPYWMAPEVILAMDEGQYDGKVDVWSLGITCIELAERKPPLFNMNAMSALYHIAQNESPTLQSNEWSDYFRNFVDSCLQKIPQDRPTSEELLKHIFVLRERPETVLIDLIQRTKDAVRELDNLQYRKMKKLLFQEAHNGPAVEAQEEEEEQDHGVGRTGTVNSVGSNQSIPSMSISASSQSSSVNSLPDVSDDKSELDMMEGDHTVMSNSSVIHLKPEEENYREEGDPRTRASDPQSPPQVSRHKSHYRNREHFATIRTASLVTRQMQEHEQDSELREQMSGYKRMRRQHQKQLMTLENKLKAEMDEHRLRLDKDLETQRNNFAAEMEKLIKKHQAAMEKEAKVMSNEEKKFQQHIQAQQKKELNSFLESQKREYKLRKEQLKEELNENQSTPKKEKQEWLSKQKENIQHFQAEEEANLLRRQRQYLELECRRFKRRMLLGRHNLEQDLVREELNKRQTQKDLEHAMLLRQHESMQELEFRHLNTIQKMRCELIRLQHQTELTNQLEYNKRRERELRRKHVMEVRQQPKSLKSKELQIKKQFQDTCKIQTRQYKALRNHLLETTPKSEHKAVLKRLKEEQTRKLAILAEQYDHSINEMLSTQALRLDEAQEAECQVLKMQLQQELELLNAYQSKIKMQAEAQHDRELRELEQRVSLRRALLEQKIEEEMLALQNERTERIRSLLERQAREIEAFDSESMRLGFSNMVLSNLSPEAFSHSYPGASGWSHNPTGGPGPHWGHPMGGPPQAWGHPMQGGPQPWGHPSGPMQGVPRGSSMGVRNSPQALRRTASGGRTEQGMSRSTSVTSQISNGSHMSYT

SMILES | residual activity (PBK (human)) | residual activity (ULK1 (human)) | residual activity (TAOK1 (human)) | residual activity (PRKD3 (human)) | residual activity (CHEK1 (human)) | residual activity (EPHA3 (human)) | residual activity (CSNK1E (human)) | residual activity (NEK7 (human)) | residual activity (RIPK2 (human)) | residual activity (CDK4 CCND3 (human)) | residual activity (CHUK (human)) | residual activity (PNCK (human)) | residual activity (FGFR4 (human)) | residual activity (MAP3K8 (human)) | residual activity (KIT (human)) | residual activity (CHEK2 (human)) | residual activity (PIM2 (human)) | residual activity (RPS6KA3 KD1 KD2 (human)) | residual activity (TYRO3 (human)) | residual activity (TTK (human)) | also measured
COc1ccc(COc2ccc(Cc3cnc(N)nc3N)cc2OC)cc1 | 99.4% | 99.7% | 110% | 97.1% | 107% | 109% | 97.1% | 100% | 81.9% | 107% | 94.7% | 98.4% | 99.7% | 98.4% | 106% | 107% | 107% | 105% | 110% | 105% | residual activity (CDK5 CDK5R1 p25 (human)): 103%; residual activity (RPS6KA2 KD1 KD2 (human)): 105%; residual activity (TSSK2 (human)): 109%; residual activity (CAMK2D (human)): 109%; residual activity (CDK9 CCNK (human)): 102%; residual activity (MARK4 (human)): 89.7%; residual activity (PRKCZ (human)): 93.4%; residual activity (TXK (human)): 101%; residual activity (BLK (human)): 98.6%; residual activity (MELK (human)): 102%; residual activity (MAPK8 (human)): 91.9%; residual activity (TEC (human)): 114%; residual activity (MAP4K2 (human)): 120%; residual activity (NEK3 (human)): 98.1%; residual activity (FER (human)): 93.4%; residual activity (MAPK1 (human)): 110%; residual activity (HIPK3 (human)): 102%; residual activity (MATK (human)): 94.8%
CC(C)N(CCC(=O)c1ccc2ccccc2c1)Cc1ccccc1 | 108% | 104% | 94.9% | 98.1% | 106% | 85% | 96.1% | 95.2% | 78.3% | 92.4% | 96.4% | 102% | 103% | 94.6% | 86.5% | 87.5% | 104% | 95.1% | 98.9% | 96% | residual activity (CDK5 CDK5R1 p25 (human)): 96.5%; residual activity (TSSK2 (human)): 100%; residual activity (CDK2 CCNE1 (human)): 89.2%; residual activity (CAMK2D (human)): 90%; residual activity (CDK9 CCNK (human)): 99.5%; residual activity (MARK4 (human)): 89.3%; residual activity (PRKCZ (human)): 100%; residual activity (FRK (human)): 95.8%; residual activity (TXK (human)): 97.1%; residual activity (BLK (human)): 106%; residual activity (MELK (human)): 99.4%; residual activity (MAPK8 (human)): 88%; residual activity (TEC (human)): 115%; residual activity (MAP4K2 (human)): 98.3%; residual activity (NEK3 (human)): 101%; residual activity (FER (human)): 105%; residual activity (MAPK1 (human)): 87.4%; residual activity (CDK2 CCNA2 (human)): 109%; residual activity (HIPK3 (human)): 115%; residual activity (MATK (human)): 80.7%
COc1ccc2c(c[n+](C)c3c4cc5c(cc4ccc23)OCO5)c1OC | 102% | 109% | 105% | 99.3% | 94.4% | 94.9% | 90.7% | 98.9% | 105% | 98.8% | 97.5% | 103% | 90.1% | 91.3% | 68.8% | 96.5% | 105% | 94.6% | 95.7% | 101% | residual activity (CDK5 CDK5R1 p25 (human)): 86.2%; residual activity (RPS6KA2 KD1 KD2 (human)): 86.1%; residual activity (CDK2 CCNE1 (human)): 88.9%; residual activity (CAMK2D (human)): 90.4%; residual activity (CDK9 CCNK (human)): 95.6%; residual activity (MARK4 (human)): 99.3%; residual activity (PRKCZ (human)): 97.7%; residual activity (FRK (human)): 89.3%; residual activity (TXK (human)): 100%; residual activity (BLK (human)): 98.7%; residual activity (MELK (human)): 89.6%; residual activity (MAPK8 (human)): 89.8%; residual activity (TEC (human)): 116%; residual activity (MAP4K2 (human)): 96.1%; residual activity (NEK3 (human)): 95.1%; residual activity (FER (human)): 89.8%; residual activity (MAPK1 (human)): 101%; residual activity (CDK2 CCNA2 (human)): 85.1%; residual activity (HIPK3 (human)): 96.6%; residual activity (MATK (human)): 89.5%
Nc1ncnc2c1c(-c1ccc(Oc3ccccc3)cc1)cn2C1CCCC1 | 114% | 106% | 84.6% | 89.4% | 113% | 96.3% | 22.3% | 94.6% | 28.6% | 108% | 99.7% | 96.2% | 98% | 83.3% | 21.6% | 76.6% | 110% | 96.9% | 102% | 104% | residual activity (RPS6KA2 KD1 KD2 (human)): 101%; residual activity (TSSK2 (human)): 92.1%; residual activity (CDK2 CCNE1 (human)): 91.3%; residual activity (CAMK2D (human)): 99.5%; residual activity (CDK9 CCNK (human)): 104%; residual activity (MARK4 (human)): 85.2%; residual activity (PRKCZ (human)): 107%; residual activity (FRK (human)): 6.25%; residual activity (TXK (human)): 17.3%; residual activity (BLK (human)): 1.52%; residual activity (MELK (human)): 101%; residual activity (MAPK8 (human)): 117%; residual activity (TEC (human)): 8.33%; residual activity (MAP4K2 (human)): 89.4%; residual activity (NEK3 (human)): 98.4%; residual activity (FER (human)): 88.1%; residual activity (MAPK1 (human)): 80.7%; residual activity (CDK2 CCNA2 (human)): 104%; residual activity (HIPK3 (human)): 116%; residual activity (MATK (human)): 90%
COc1cc2ncnc(Nc3cccc(Cl)c3)c2cc1OC | 70.9% | 84.7% | 108% | 86.5% | 93.7% | 97.9% | 75.3% | 99% | 45.4% | 103% | 103% | 89.6% | 78.7% | 104% | 94% | 79.7% | 104% | 87.8% | 96.7% | 108% | residual activity (CDK5 CDK5R1 p25 (human)): 87.3%; residual activity (RPS6KA2 KD1 KD2 (human)): 85.5%; residual activity (TSSK2 (human)): 94.8%; residual activity (CDK2 CCNE1 (human)): 90.4%; residual activity (CAMK2D (human)): 96.1%; residual activity (CDK9 CCNK (human)): 106%; residual activity (MARK4 (human)): 98.5%; residual activity (PRKCZ (human)): 102%; residual activity (FRK (human)): 81.1%; residual activity (TXK (human)): 75%; residual activity (BLK (human)): 68.2%; residual activity (MELK (human)): 81.8%; residual activity (MAPK8 (human)): 93.8%; residual activity (TEC (human)): 126%; residual activity (MAP4K2 (human)): 98.1%; residual activity (NEK3 (human)): 84.3%; residual activity (FER (human)): 77.1%; residual activity (MAPK1 (human)): 91.7%; residual activity (HIPK3 (human)): 98.9%; residual activity (MATK (human)): 103%
